One test concerns BT474 cells. Description: Cell proliferation assay, BT474 breast tumour cell line. The format is cell-based, human. The note with it: read-out: Cell Proliferation BT474 IC50. As for the experimental part:
(§1) The cell proliferation assay uses an immortalised human breast epithelial cell line (HB4a) which has been transformed by over-expression of c-erbB-2. Growth of these cells in low serum is dependent upon the c-erbB-2 tyrosine kinase activity. The specificity of the effect of the test compounds on tyrosine kinase dependent growth over general toxicity is assessed by comparison to an HB4a cell line which has been transfected with ras. Cells are plated at 3000/well in 96-well plates in 0.1 ml medium and allowed to attach overnight, test compound is added in 0.1 ml medium, with a final concentration of 0.5% DMSO, and the plates incubated for 4 days at 37° C. The cells are then examined microscopically for evidence of morphological detransformation and cell mass is estimated by staining with methylene blue and measuring the absorbance at 620 nm. The results are shown in Table 1 below as the IC50 values in nM. Activity against a range of naturally occurring EGFr or c-erbB-2 over-expressing human tumour cell lines (BT474-breast, HN5-head and neck, N87-gastric and Calu3-lung) is assessed with selected compounds by the same methodology. The results are also shown in Table 1 below as the IC50 values in nM.

Another test relates to N87 cells. Description: Cell proliferation assay, N87 gastric tumour cell line. Type of test: cell-based, human. The note with it: read-out: Cell Proliferation N87 IC50. As to the method: as §1
The subject of another test is Calu3 cells. Description: Cell proliferation assay, Calu3 lung tumour cell line. Type of test: cell-based, human. The note with it: read-out: Cell Proliferation Calu3 IC50. As to the method: as §1
The next test concerns HB4a ras cells. Description: Cell proliferation assay, HB4a transfected with ras (general toxicity comparison). The format is cell-based, human. The note with it: read-out: Cell Proliferation HB4a ras IC50. As for the experimental part: as §1
The target of test [1] is T1, c-erbB-2 (baculovirus expressed recombinant intracellular domain) (Homo sapiens, UniProt P04626).
T1 construct: baculovirus expressed, recombinant constructs of the intracellular domains of c-erbB-2 and c-erbB-4 that are constitutively active; made in house
T1 sequence (P04626 676-1255 limits assumed): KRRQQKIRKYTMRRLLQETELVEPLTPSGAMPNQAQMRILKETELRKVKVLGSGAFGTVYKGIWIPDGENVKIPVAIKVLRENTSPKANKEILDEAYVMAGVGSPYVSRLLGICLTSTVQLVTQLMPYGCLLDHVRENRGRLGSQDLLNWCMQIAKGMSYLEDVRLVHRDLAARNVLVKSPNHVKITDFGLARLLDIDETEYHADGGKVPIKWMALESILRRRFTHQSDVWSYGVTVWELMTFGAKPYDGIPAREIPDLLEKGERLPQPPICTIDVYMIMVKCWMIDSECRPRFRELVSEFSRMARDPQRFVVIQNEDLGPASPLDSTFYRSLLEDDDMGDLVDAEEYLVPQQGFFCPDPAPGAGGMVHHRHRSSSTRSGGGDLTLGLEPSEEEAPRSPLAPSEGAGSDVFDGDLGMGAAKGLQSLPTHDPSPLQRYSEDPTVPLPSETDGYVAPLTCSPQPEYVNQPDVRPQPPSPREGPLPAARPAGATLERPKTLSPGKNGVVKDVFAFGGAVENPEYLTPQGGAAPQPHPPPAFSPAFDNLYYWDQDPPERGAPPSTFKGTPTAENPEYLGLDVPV
Description: Substrate phosphorylation assay, c-erbB-2. The format is biochemical. The note with it: ATP and peptide at Km, 30 min, room temperature. As for the experimental part: (§2) The substrate phosphorylation assays use baculovirus expressed, recombinant constructs of the intracellular domains of c-erbB-2 and c-erbB-4 that are constitutively active and EGFr isolated from solubilised A431 cell membranes. The method measures the ability of the isolated enzymes to catalyse the transfer of the γ-phosphate from ATP onto tyrosine residues in a biotinylated synthetic peptide (Biotin-[…]. […] The reaction is stopped by the addition of EDTA (final concentration 0.15 mM) and a sample is transferred to a streptavidin-coated 96-well plate. The plate is washed and level of phosphotyrosine on the peptide is determined using a Europium-labelled antiphosphotyrosine antibody and quantified with a time-resolved fluorescence technique.

In the next test the test system is HN5 cells. In words: Cell proliferation assay, HN5 head and neck tumour cell line. The note with it: Homo sapiens, HN5, 96 h, read-out: Cell Proliferation HN5 IC50. The format is cell-based. As for the experimental part:
as §1

Another test concerns HB4a erbB-2 cells. Description: Cell proliferation assay, HB4a transformed by over-expression of c-erbB-2. The format is cell-based, human. The note with it: read-out: Cell Proliferation HB4a erbB-2 IC50. As for the experimental part:
as §1

The target in test [2] is T2, c-erbB-4 (baculovirus expressed recombinant intracellular domain) (Homo sapiens, UniProt Q15303).
T2 construct: baculovirus expressed, recombinant constructs of the intracellular domains of c-erbB-2 and c-erbB-4 that are constitutively active; made in house
T2 sequence (Q15303 676-1308 limits assumed): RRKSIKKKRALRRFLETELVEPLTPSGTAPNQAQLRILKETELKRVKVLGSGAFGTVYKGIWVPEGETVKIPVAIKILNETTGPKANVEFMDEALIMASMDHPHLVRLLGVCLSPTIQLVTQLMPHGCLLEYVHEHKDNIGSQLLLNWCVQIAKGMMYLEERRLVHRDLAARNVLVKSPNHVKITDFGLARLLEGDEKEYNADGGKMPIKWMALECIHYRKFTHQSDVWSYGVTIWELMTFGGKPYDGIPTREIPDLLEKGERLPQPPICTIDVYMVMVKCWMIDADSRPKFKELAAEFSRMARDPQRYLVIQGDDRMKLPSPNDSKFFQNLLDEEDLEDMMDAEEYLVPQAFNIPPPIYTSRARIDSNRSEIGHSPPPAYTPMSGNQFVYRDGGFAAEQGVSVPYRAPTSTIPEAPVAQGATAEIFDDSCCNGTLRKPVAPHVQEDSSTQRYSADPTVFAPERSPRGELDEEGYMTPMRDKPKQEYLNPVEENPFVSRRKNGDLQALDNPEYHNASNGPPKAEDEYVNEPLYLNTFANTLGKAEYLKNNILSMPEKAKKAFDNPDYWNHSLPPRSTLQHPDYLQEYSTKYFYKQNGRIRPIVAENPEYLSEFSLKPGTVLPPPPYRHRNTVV
In words: Substrate phosphorylation assay, c-erbB-4. The note with it: ATP and peptide at Km, 30 min, room temperature. Type of test: biochemical. As to the method:
as §2

Test [3] has as its target T3, EGFr isolated from solubilised A431 cell membranes (Homo sapiens, UniProt P00533).
T3 construct: EGFr isolated from solubilised A431 cell membranes; endogenous in cells; host or cells: A431 cell membranes (solubilised)
In words: Substrate phosphorylation assay, EGFr. The format is biochemical. The note with it: ATP and peptide at Km, 30 min, room temperature. As to the method: as §2

[4] abbreviates: Homo sapiens, Calu-3, 96 h, 4 days, methylene blue staining.
The mark [5] stands for this setting: Homo sapiens, HB4a, 96 h, 4 days, methylene blue staining.
[6] abbreviates: Homo sapiens, BT-474, 96 h, 4 days, methylene blue staining.
Setting [7] is: Homo sapiens, 96 h, 4 days, methylene blue staining.
[8] abbreviates: 4 days, methylene blue staining.

Counter-ions that a name gives are not always drawn. Like-named read-outs stand apart in the source and are kept apart here.

These results are taken from patent publication US6723726B1 (SmithKline Beecham Corporation, priority 1996, dated 2004).

T3 sequence (P00533 25-1210): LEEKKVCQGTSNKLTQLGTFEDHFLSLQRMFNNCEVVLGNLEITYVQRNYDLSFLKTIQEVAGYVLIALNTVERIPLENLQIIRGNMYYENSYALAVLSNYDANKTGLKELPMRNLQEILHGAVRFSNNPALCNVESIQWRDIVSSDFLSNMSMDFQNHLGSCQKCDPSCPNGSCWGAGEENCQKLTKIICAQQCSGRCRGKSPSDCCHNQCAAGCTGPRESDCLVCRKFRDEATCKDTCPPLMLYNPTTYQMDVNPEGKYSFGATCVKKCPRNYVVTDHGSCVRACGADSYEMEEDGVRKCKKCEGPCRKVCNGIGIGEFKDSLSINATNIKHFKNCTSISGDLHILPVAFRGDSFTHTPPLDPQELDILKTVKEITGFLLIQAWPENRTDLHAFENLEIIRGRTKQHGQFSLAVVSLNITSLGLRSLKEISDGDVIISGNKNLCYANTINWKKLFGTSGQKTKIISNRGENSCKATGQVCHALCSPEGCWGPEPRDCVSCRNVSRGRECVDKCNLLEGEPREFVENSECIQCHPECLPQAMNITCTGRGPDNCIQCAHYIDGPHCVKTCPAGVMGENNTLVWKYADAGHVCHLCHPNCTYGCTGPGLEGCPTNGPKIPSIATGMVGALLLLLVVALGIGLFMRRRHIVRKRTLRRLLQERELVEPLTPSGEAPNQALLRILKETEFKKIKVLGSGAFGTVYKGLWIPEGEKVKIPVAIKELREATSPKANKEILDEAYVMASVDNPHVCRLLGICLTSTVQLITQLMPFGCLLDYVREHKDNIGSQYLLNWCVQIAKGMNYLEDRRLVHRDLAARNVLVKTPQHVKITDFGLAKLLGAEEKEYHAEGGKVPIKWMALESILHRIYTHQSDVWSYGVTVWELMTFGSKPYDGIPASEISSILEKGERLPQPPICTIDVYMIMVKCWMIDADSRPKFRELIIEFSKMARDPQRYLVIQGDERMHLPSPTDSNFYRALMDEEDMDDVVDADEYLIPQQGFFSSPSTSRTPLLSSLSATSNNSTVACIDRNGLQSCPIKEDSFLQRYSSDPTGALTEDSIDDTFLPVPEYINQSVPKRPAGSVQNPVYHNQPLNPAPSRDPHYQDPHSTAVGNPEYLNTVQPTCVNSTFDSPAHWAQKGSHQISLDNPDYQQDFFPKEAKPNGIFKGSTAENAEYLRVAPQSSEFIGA

Regarding `CN(C)c1cc2c(Nc3ccc4c(cnn4Cc4ccccc4)c3)ncnc2cn1` [Example 2, N 4-(1-Benzyl-1H-indazol-5-yl)-N6,N6-dimethyl-pyrido[3,4-d]pyrimidine-4.6-diamine], the IC50 came out at 140 nM with BT474 cells (Homo sapiens, BT-474, 96 h); 240 nM in the test with N87 cells (Homo sapiens, 96 h); 380 nM in the test on Calu3 cells (Homo sapiens, Calu-3, 96 h); 17000 nM in the test with HB4a ras cells (Homo sapiens, HB4a, 96 h); 19 nM in [1]; 300 nM in the test with HN5 cells. Moreover, the IC50 in the test on HB4a erbB-2 cells (Homo sapiens, HB4a, 96 h) stood at 110 nM; in test [2] it was 20 nM.
For the molecule `CN(CCO)c1cc2c(Nc3ccc4c(cnn4Cc4ccccc4)c3)ncnc2cn1` [Example 3], the IC50 is 1800 nM in the test with Calu3 cells (setting [4]); 33000 nM with HB4a ras cells (setting [5]); 7 nM in test [1]; 140 nM in the test with HB4a erbB-2 cells (setting [5]); 23 nM in [2].
With `CN(C)c1cc2c(Nc3ccc4nc(Cc5ccccc5)[nH]c4c3)ncnc2cn1` [Example 7, N4-(2-Benzyl-1H-benzimidazol-5-yl)-N6,N6-dimethyl-pyrido[3,4-d]pyrimidine-4,6-diamine], the IC50 is 610 nM in the test on BT474 cells (setting [6]); 8000 nM with Calu3 cells (setting [4]); 19000 nM in the test with HB4a ras cells (setting [5]); 7 nM in test [1]; 1900 nM with HB4a erbB-2 cells (setting [5]); 21 nM in test [2].
For the molecule `NC(=O)[C@@H]1CCCN1Cc1ccc(-c2cc3c(Nc4ccc5c(cnn5Cc5ccccc5)c4)ncnc3cn2)o1` [Example 10, (2S)1-(5-(4-(1-Benzyl-1H-indazol-5-ylamino)-6-pydrido[3,4-d]pyrimidin-6-yl)-furan-2-ylmethyl)-pyrrolidine-2-carboxylic Acid Amide Hydrochloride], the IC50 in the test with BT474 cells (setting [6]) came out at 2 nM; in the test with N87 cells (setting [7]) it was 2 nM; with Calu3 cells (setting [4]), 160 nM; with HB4a ras cells (setting [5]) it was 21000 nM; in test [1], 6 nM; in the test with HN5 cells (setting [8]), 130 nM. The IC50 in the test with HB4a erbB-2 cells (setting [5]) was found to be 71 nM; in test [2] it was 10 nM.
Turning to `Cn1cncc1-c1cc2c(Nc3ccc4c(cnn4Cc4ccccc4)c3)ncnc2cn1` [Example 11, (1-Benzyl-1H-indazol-5-yl)-(6-(3-methyl-3H-imidazol-4-yl)-pyrido[3,4-d]pyrimidin-4-yl)-amine], the IC50 in test [3] amounted to 15 nM; with BT474 cells (setting [6]), 1400 nM; in the test on N87 cells (setting [7]), 370 nM; in the test on Calu3 cells (setting [4]) it was 1200 nM; in the test with HB4a ras cells (setting [5]), 3800 nM; in test [1], 9 nM. Further, the values for the IC50 (in the test on HN5 cells (setting [8]); in the test on HB4a erbB-2 cells (setting [5]); in test [2]) were 1400 nM, 1400 nM and 55 nM, respectively.
For `CN(C)c1cc2c(Nc3ccc4c(cnn4Cc4cccc(F)c4)c3)ncnc2cn1` [Example 16, N4-(1-(3-Fluoro-benzyl)-1H-indazol-5-yl)-N6,N6-dimethyl-pyrido[3,4-d]pyrimidine-4.6-diamine Hydrochloride], the IC50 is 1 nM with BT474 cells (setting [6]); 120 nM in the test on N87 cells (setting [7]); 180 nM in the test with Calu3 cells (setting [4]); 11000 nM in the test with HB4a ras cells (setting [5]); 9 nM in test [1]; 81 nM with HN5 cells (setting [8]). Further, the IC50 with HB4a erbB-2 cells (setting [5]) is 44 nM; in [2], 96 nM.
As to `CN(C)c1cc2c(Nc3ccc4c(cnn4Cc4ccc(F)cc4)c3)ncnc2cn1` [Example 17, N4-(4-Fluoro-benzyl)-1H-indazol-5-yl)-N6,N6-dimethyl-pyrido[3,4-d]pyrimidine-4,6-diamine Hydrochloride], the IC50 turned out to be 550 nM in the test on BT474 cells (setting [8]); 7000 nM in the test on Calu3 cells (setting [8]); 7600 nM with HB4a ras cells (setting [8]); 250 nM in [1]; 490 nM in the test on HB4a erbB-2 cells (setting [8]).
`c1ccc(Cn2ncc3cc(Nc4ncnc5cnc(N6CCCC6)cc45)ccc32)cc1` [Example 24, (1-Benzyl-1H-indazol-5-yl)-(6-pyrrolidin-1-yl-pyrido[3,4-d]pyrimidin-4-yl)-amine]: the IC50 was 460 nM with BT474 cells (setting [6]); 50000 nM in the test on HB4a ras cells (setting [5]); 20 nM in test [1]; 900 nM in the test on HN5 cells (setting [8]); 810 nM in the test with HB4a erbB-2 cells (setting [5]); 140 nM in test [2].
With `c1ccc(Cn2ncc3cc(Nc4ncnc5cnc(N6CCCCC6)cc45)ccc32)cc1` [Example 25], the IC50 in test [3] is 380 nM; in the test with BT474 cells (setting [8]) it was 270 nM; in the test on N87 cells (setting [8]), 940 nM; with HB4a ras cells (setting [8]), above 50000 nM; in [1], 60 nM; in the test with HB4a erbB-2 cells (setting [8]), 480 nM. The IC50 in test [2] worked out at 570 nM.
For the molecule `Cc1nnc(-c2cc3c(Nc4ccc5c(cnn5Cc5ccccc5)c4)ncnc3cn2)o1` [Example 29, (1-Benzyl-1H-indazol-5-yl)-(6-(5-methyl-1,3,4-oxadiazol-2-yl)-pyrido[3,4-d]pyrimidin-4-yl)-amine Hydrochloride], the IC50 in test [3] is 2 nM; in the test with BT474 cells (setting [6]) it was 11000 nM; with N87 cells (setting [7]), 10000 nM; in the test with HB4a ras cells (setting [5]), 29000 nM; in [1], 2 nM; in the test with HB4a erbB-2 cells (setting [5]), 5200 nM. Besides, the IC50 in test [2] was found to be 5500 nM.
On to `CN1CCN(c2cc3c(Nc4ccc5c(cnn5Cc5ccccc5)c4)ncnc3cn2)CC1` [Example 32, (1-Benzyl-1H-indazol-5-yl)-(6-(4-methyl-piperazin-1-yl)-pyrido[3,4-d]pyrimidin-4-yl)-amine], for which the IC50 worked out at 1000 nM with BT474 cells (setting [6]); 600 nM in the test with N87 cells (setting [7]); 8200 nM in the test on Calu3 cells (setting [4]); 8800 nM with HB4a ras cells (setting [5]); 55 nM in test [1]; 4200 nM with HN5 cells (setting [8]). The IC50 in the test on HB4a erbB-2 cells (setting [5]) was 100 nM; in test [2], 140 nM.
With `CS(=O)(=O)CCNCc1ccc(-c2cc3c(Nc4ccc5c(cnn5Cc5ccccc5)c4)ncnc3cn2)o1` [Example 34, (1-Benzyl-1H-indazol-5-yl)-(6-(5-((2-methanesuphonyl-ethylamino)-methyl)-furan-2-yl)-pyrido-[3,4-d]pyrimidin-4-yl)-amine Hydrochloride], the IC50 with BT474 cells (setting [6]) is 2 nM; in the test with N87 cells (setting [7]) it was 190 nM; in the test with Calu3 cells (setting [4]) it was 1300 nM; in the test with HB4a ras cells (setting [5]) it was 17000 nM; in test [1], 15 nM; in the test with HN5 cells (setting [8]), 190 nM. Besides, the IC50 with HB4a erbB-2 cells (setting [5]) turned out to be 70 nM; in [2] it was 230 nM.
Take `CNc1cc2c(Nc3ccc4c(cnn4Cc4ccccc4)c3)ncnc2cn1` [Example 37, N4-(1-Benzyl-1H-indazol-5-yl)-N6-methyl-pyrido[3,4-d]pyrimidine-4,6diamine]: the IC50 in [3] turned out to be 30 nM; with BT474 cells (setting [6]), 1100 nM; with N87 cells (setting [7]), 2200 nM; in the test with Calu3 cells (setting [4]) it was 3700 nM; with HB4a ras cells (setting [5]), 17000 nM; in [1], 65 nM. Besides, the IC50 with HN5 cells (setting [8]) amounted to 2000 nM; in the test on HB4a erbB-2 cells (setting [5]), 520 nM; in test [2], 180 nM.
